Biological target: Retinol-binding protein 4 (Homo sapiens, UniProt P02753)
Assay: Displacement of [3H]-all-trans-retinol from biotinylated human urine derived RBP4 measured after 16 hrs by scintillation proximity assay

Q: For `Cc1cc(C(=O)O)nc(N2CCC(COc3ccccc3C(F)(F)F)C2)n1` (stereo unspecified), which IC50 is on record?
A: The IC50 was 80 nM.
